Source: US7897611B2, “Pharmaceutical compositions and methods for relieving pain and treating central nervous system disorders” (Targacept, Inc., priority 2003, dated 2011)

Columns and labels:
rats = experiment: Rat model of peripheral mononeuropathy (Bennett Model), paw pressure test; format: in vivo; conditions: for % Variation of nociceptive threshold, injured paw, vs vehicle-treated group / Nociceptive threshold, injured paw: Bennett model; for Nociceptive threshold, injured paw: paw pressure, mean ± SEM
Experimental: A rat model of peripheral mononeuropathy (Bennett Model) was also used to evaluate the antihyperalgesic properties of the compounds.
Briefly, peripheral mononeuropathy was induced by loose ligation of the sciatic nerve in anaesthetized rats (pentobarbital; 45 mg/kg by intraperitoneal route). Fourteen days later, the nociceptive threshold was evaluated using a mechanical nociceptive stimulation (paw pressure test). An increasing pressure was applied onto the hindpaw of the animal until the nociceptive reaction (vocalization or paw withdrawal) was reached. The pain threshold (grams of contact pressure) was measured in hindpaws, both ipsilateral (injured side) and contralateral (non-injured side) to the site of sciatic ligation injury, at 10 minutes after the oral treatment for the compounds (1 mg/kg) and 60 minutes after dosing for morphine (60 mg/kg) and vehicle.
The results were expressed as a) the nociceptive threshold (mean±SEM) in grams of contact pressure for the injured paw and for the non-injured paw in the vehicle-treated group, and b) the percentage of variation of the nociceptive threshold calculated from the mean value of the vehicle-treated group.

mice = experiment: Hot plate test in mice (nociceptive reaction latency); format: in vivo; conditions: for Reaction Latency: hot plate 52°C, cutoff 30 seconds, mean ± SEM; for % variation of reaction latency: vs saline; for increase of nociceptive reaction latency vs vehicle controls: 1.0 mg/kg oral; for increase of nociceptive reaction latency vs vehicle-control: 60 mg/kg oral
Experimental: The compounds of Example 1 (administered as the dihydrochloride salt of a 3:1 mixture of 3-(3-pyridinyl)-6-azabicyclo[3.2.1]oct-2-ene and 3-(3-pyridinyl)-6-azabicyclo[3.2.1]oct-3-ene) were evaluated in this Example using a “hot plate” test in mice. Briefly, the compounds of Example 1 (0.03, 0.1 and 0.3 mg free base/kg) were subcutaneously administered five minutes before the hot plate test. Morphine (10 mg/kg) was subcutaneously administered at 15 minutes before the test. Each mouse was placed on a metallic hot plate maintained at 52±0.2° C. The nociceptive reaction latency, characterized by licking reflex of the forepaws or by jumping off the hot plate, was recorded. The cutoff was set to 30 seconds.
The time course of the analgesic effect of the compounds of Example 1 (0.1, 0.3 and 1.0 mg free base/kg) was also assessed using the hot plate test following oral administration. Each dose of the compounds was administered to separate groups of animals at either 5, 15, 30 or 60 minutes prior to hot plate assessment. Morphine (60 mg/kg) and vehicle were also orally administered to separate groups of animals either 5, 15, 30, or 60 minutes before the test. Each mouse was placed on a metallic hot plate maintained at 52±0.2° C. The nociceptive reaction latency, characterized by licking reflex of the forepaws or by jumping off the hot plate, was recorded. The cutoff was set to 30 seconds.

[1] = 1 mg/kg oral, 10 minutes after treatment
[2] = hot plate, 15 minutes after dosing
[3] = 60 mg/kg oral, 60 minutes after dosing

## C1=C(c2cccnc2)CC2CNCC1C2.Cl.Cl (stereo not drawn)
other
  melting point: 219 to 221 °C

## C1=C(c2cccnc2)C2CNCC1C2.Cl.Cl (stereo not drawn)
other
  melting point: 192 to 195 °C

## 3-(3-pyridinyl)-6-azabicyclo[3.2.1]oct-2-ene dihydrochloride and 3-(3-pyridinyl)-6-azabicyclo[3.2.1]oct-3-ene dihydrochloride [Example 1]
rats; 1 mg/kg oral
  behavioral side-effects following dosing: No behavioral side-effects were observed
rats; [1]
  % Variation of nociceptive threshold, injured paw, vs vehicle-treated group: 20%
  Nociceptive threshold, injured paw: 132.0 ± 9.0 g
mice; 0.03 mg free base/kg subcutaneous, five minutes before the test
  Reaction Latency: 19.3 ± 2.8 s
mice; 0.1 mg free base/kg subcutaneous, five minutes before the test
  Reaction Latency: 18.8 ± 2.2 s
mice; 0.3 mg free base/kg subcutaneous, five minutes before the test
  Reaction Latency: 28.2 ± 1.8 s
mice; hot plate, 0.03 mg/kg subcutaneous, five minutes before the test
  % variation of reaction latency: 72%
mice; hot plate, 0.1 mg/kg subcutaneous, five minutes before the test
  % variation of reaction latency: 68%
mice; hot plate, 0.3 mg/kg subcutaneous, five minutes before the test
  % variation of reaction latency: 152%
mice; hot plate, 5 minutes after dosing
  increase of nociceptive reaction latency vs vehicle controls: 82%
mice; [2]
  increase of nociceptive reaction latency vs vehicle controls: 97%
mice; hot plate, lower oral doses (0.1 and 0.3 mg free base/kg), data not shown
  effect on nociceptive threshold vs vehicle-treated group: failed to modify the nociceptive threshold

## CN1CC[C@]23c4c5ccc(O)c4O[C@H]2[C@@H](O)C=C[C@H]3[C@H]1C5 [Morphine, reference compound]
rats; [3]
  % Variation of nociceptive threshold, injured paw, vs vehicle-treated group: 144%
  Nociceptive threshold, injured paw: 268.0 ± 18.9 g
mice; 10 mg/kg subcutaneous, 15 minutes before the test
  Reaction Latency: 29.4 ± 0.5 s
mice; hot plate, 10 mg/kg subcutaneous, 15 minutes before the test
  % variation of reaction latency: 163%
mice; [2]
  increase of nociceptive reaction latency vs vehicle-control: 69%
mice; hot plate, 30 minutes after dosing
  increase of nociceptive reaction latency vs vehicle-control: 47%
mice; hot plate, 60 minutes after dosing
  increase of nociceptive reaction latency vs vehicle-control: 37%
